Values joined by “and” are separate entries in the source; they are usually repeats but may differ in a detail not shown here. Equal values may be shown once. ± gives the expanded uncertainty stated by the source.
Settings: Liquid, Vibrating tube method

CCCCCCCCCC [decane]
mass density (313.16 K, 749 kPa): 715.1 ± 2 kg/m3 | mass density (313.16 K, 764 kPa): 715.3 ± 2 kg/m3 | mass density (313.16 K, 784 kPa): 715.3 ± 2 kg/m3 | mass density (313.16 K, 800 kPa): 715.3 ± 2 kg/m3 | mass density (313.16 K, 813 kPa): 715.2 ± 2 kg/m3 | mass density (313.16 K, 837 kPa): 715.4 ± 2 kg/m3 | mass density (313.16 K, 852 kPa): 715.2 ± 2 kg/m3 | mass density (313.16 K, 870 kPa): 715.4 ± 2 kg/m3 | mass density (313.16 K, 891 kPa): 715.4 ± 2 kg/m3 | mass density (313.16 K, 916 kPa): 715.3 ± 2 kg/m3 | mass density (313.16 K, 938 kPa): 715.3 ± 2 kg/m3 | mass density (313.16 K, 958 kPa): 715.5 ± 2 kg/m3 | mass density (313.16 K, 978 kPa): 715.4 ± 2 kg/m3 | mass density (323.14 K, 3098 kPa): 709.7 ± 2 kg/m3 | mass density (323.14 K, 3118 kPa): 709.8 ± 2 kg/m3 | mass density (323.14 K, 3138 kPa): 709.6 ± 2 kg/m3 | mass density (323.14 K, 3156 kPa): 709.6 ± 2 kg/m3 | mass density (323.14 K, 3176 kPa): 709.7 ± 2 kg/m3 | mass density (323.14 K, 3200 kPa): 709.7 ± 2 kg/m3 | mass density (323.14 K, 3221 kPa): 709.8 ± 2 kg/m3 | mass density (323.14 K, 3243 kPa): 709.8 ± 2 kg/m3 | mass density (323.14 K, 3271 kPa): 709.9 ± 2 kg/m3 | mass density (323.14 K, 3297 kPa): 709.9 ± 2 kg/m3 | mass density (323.14 K, 3322 kPa): 709.9 ± 2 kg/m3 | mass density (323.14 K, 3345 kPa): 709.8 ± 2 kg/m3 | mass density (323.14 K, 3372 kPa): 709.8 ± 2 kg/m3 | mass density (323.14 K, 3400 kPa): 710 ± 2 kg/m3 | mass density (323.14 K, 3430 kPa): 709.9 ± 2 kg/m3 | mass density (323.14 K, 3451 kPa): 710 ± 2 kg/m3 | mass density (323.14 K, 3477 kPa): 710 ± 2 kg/m3 | mass density (323.14 K, 3502 kPa): 710.1 ± 2 kg/m3 | mass density (323.14 K, 3524 kPa): 710.2 ± 2 kg/m3 | mass density (323.14 K, 3549 kPa): 710.1 ± 2 kg/m3 | mass density (323.14 K, 3571 kPa): 710.1 ± 2 kg/m3 | mass density (323.14 K, 3597 kPa): 710.2 ± 2 kg/m3 | mass density (323.14 K, 3614 kPa): 710.1 ± 2 kg/m3 | mass density (323.14 K, 3637 kPa): 710.2 ± 2 kg/m3 | mass density (323.14 K, 3661 kPa): 710.2 ± 2 kg/m3 | mass density (323.14 K, 3681 kPa): 710.1 ± 2 kg/m3 | mass density (323.14 K, 3715 kPa): 710.2 ± 2 kg/m3 | mass density (323.14 K, 3736 kPa): 710.3 ± 2 kg/m3 | mass density (323.14 K, 3761 kPa): 710.4 ± 2 kg/m3 | mass density (323.14 K, 3794 kPa): 710.3 ± 2 kg/m3 | mass density (323.14 K, 3819 kPa): 710.3 ± 2 kg/m3 | mass density (323.14 K, 3849 kPa): 710.3 ± 2 kg/m3 | mass density (323.14 K, 3879 kPa): 710.4 ± 2 kg/m3 | mass density (323.14 K, 3911 kPa): 710.4 ± 2 kg/m3 | mass density (323.14 K, 3939 kPa): 710.5 ± 2 kg/m3 | mass density (323.14 K, 3959 kPa): 710.5 ± 2 kg/m3 | mass density (323.14 K, 3978 kPa): 710.4 ± 2 kg/m3 | mass density (323.14 K, 4004 kPa): 710.5 ± 2 kg/m3 | mass density (323.14 K, 4033 kPa): 710.5 ± 2 kg/m3 | mass density (323.14 K, 4053 kPa): 710.5 ± 2 kg/m3 | mass density (323.14 K, 4078 kPa): 710.6 ± 2 kg/m3 | mass density (323.14 K, 4103 kPa): 710.7 ± 2 kg/m3 | mass density (323.14 K, 4122 kPa): 710.7 ± 2 kg/m3 | mass density (323.14 K, 4144 kPa): 710.6 ± 2 kg/m3 | mass density (323.14 K, 4164 kPa): 710.6 ± 2 kg/m3 | mass density (323.14 K, 4191 kPa): 710.6 ± 2 kg/m3 | mass density (323.14 K, 4213 kPa): 710.8 ± 2 kg/m3 | mass density (323.14 K, 4230 kPa): 710.8 ± 2 kg/m3 | mass density (323.14 K, 4248 kPa): 710.7 ± 2 kg/m3 | mass density (323.14 K, 4405 kPa): 710.9 ± 2 kg/m3 | mass density (323.14 K, 4447 kPa): 710.9 ± 2 kg/m3 | mass density (323.14 K, 4462 kPa): 710.9 ± 2 kg/m3 | mass density (323.14 K, 4506 kPa): 711 ± 2 kg/m3 | mass density (323.14 K, 4528 kPa): 711 ± 2 kg/m3 | mass density (323.14 K, 4550 kPa): 711 ± 2 kg/m3 | mass density (323.14 K, 4566 kPa): 711 ± 2 kg/m3 | mass density (323.14 K, 4587 kPa): 711 ± 2 kg/m3 | mass density (323.14 K, 4704 kPa): 711.1 ± 2 kg/m3 | mass density (323.14 K, 4721 kPa): 711.2 ± 2 kg/m3 | mass density (323.14 K, 4739 kPa): 711.2 ± 2 kg/m3 | mass density (323.14 K, 4770 kPa): 711.2 ± 2 kg/m3 | mass density (323.14 K, 4793 kPa): 711.3 ± 2 kg/m3 | mass density (323.14 K, 4804 kPa): 711.2 ± 2 kg/m3 | mass density (323.14 K, 4818 kPa): 711.3 ± 2 kg/m3 | mass density (323.14 K, 4838 kPa): 711.3 ± 2 kg/m3 | mass density (323.14 K, 4970 kPa): 711.3 ± 2 kg/m3 | mass density (323.14 K, 5064 kPa): 711.5 ± 2 kg/m3 | mass density (323.14 K, 5127 kPa): 711.5 ± 2 kg/m3 | mass density (323.14 K, 5175 kPa): 711.5 ± 2 kg/m3 | mass density (323.14 K, 5178 kPa): 711.6 ± 2 kg/m3 | mass density (323.14 K, 5183 kPa): 711.6 ± 2 kg/m3 | mass density (323.14 K, 5184 kPa): 711.5 ± 2 kg/m3 | mass density (323.14 K, 5187 kPa): 711.6 ± 2 kg/m3 | mass density (323.14 K, 5189 kPa): 711.6 ± 2 kg/m3 | mass density (323.14 K, 5191 kPa): 711.6 ± 2 kg/m3 | mass density (323.14 K, 5192 kPa): 711.5 ± 2 kg/m3 and 711.6 ± 2 kg/m3 | mass density (323.14 K, 5193 kPa): 711.5 ± 2 kg/m3 | mass density (323.14 K, 5216 kPa): 711.7 ± 2 kg/m3 | mass density (323.14 K, 5238 kPa): 711.6 ± 2 kg/m3 | mass density (323.14 K, 5256 kPa): 711.7 ± 2 kg/m3 | mass density (323.14 K, 5276 kPa): 711.6 ± 2 kg/m3 | mass density (323.14 K, 5291 kPa): 711.7 ± 2 kg/m3 | mass density (323.14 K, 5312 kPa): 711.6 ± 2 kg/m3 | mass density (323.14 K, 5335 kPa): 711.7 ± 2 kg/m3 | mass density (323.14 K, 5353 kPa): 711.8 ± 2 kg/m3 | mass density (323.14 K, 5375 kPa): 711.7 ± 2 kg/m3 | mass density (323.14 K, 5406 kPa): 711.8 ± 2 kg/m3 | mass density (323.14 K, 5428 kPa): 711.7 ± 2 kg/m3 | mass density (323.14 K, 5450 kPa): 711.7 ± 2 kg/m3 | mass density (323.14 K, 5468 kPa): 711.9 ± 2 kg/m3 | mass density (323.14 K, 5487 kPa): 711.9 ± 2 kg/m3 | mass density (323.14 K, 5506 kPa): 711.8 ± 2 kg/m3 | mass density (323.14 K, 5535 kPa): 711.9 ± 2 kg/m3 | mass density (323.14 K, 5551 kPa): 711.8 ± 2 kg/m3 | mass density (323.14 K, 5575 kPa): 712 ± 2 kg/m3 | mass density (323.14 K, 5594 kPa): 711.9 ± 2 kg/m3 | mass density (323.14 K, 5611 kPa): 712 ± 2 kg/m3 | mass density (323.14 K, 5631 kPa): 712 ± 2 kg/m3 | mass density (323.14 K, 5670 kPa): 712 ± 2 kg/m3 | mass density (323.14 K, 5697 kPa): 712.1 ± 2 kg/m3 | mass density (323.14 K, 5721 kPa): 712.1 ± 2 kg/m3 | mass density (323.14 K, 5738 kPa): 712.1 ± 2 kg/m3 | mass density (323.14 K, 5756 kPa): 712 ± 2 kg/m3 | mass density (323.14 K, 5770 kPa): 712 ± 2 kg/m3 | mass density (323.14 K, 5788 kPa): 712 ± 2 kg/m3 | mass density (323.14 K, 5909 kPa): 712.2 ± 2 kg/m3 | mass density (323.14 K, 5924 kPa): 712.2 ± 2 kg/m3 | mass density (323.14 K, 5940 kPa): 712.3 ± 2 kg/m3 | mass density (323.14 K, 5955 kPa): 712.2 ± 2 kg/m3 | mass density (323.14 K, 5968 kPa): 712.3 ± 2 kg/m3 | mass density (323.14 K, 5986 kPa): 712.3 ± 2 kg/m3 | mass density (323.14 K, 6004 kPa): 712.2 ± 2 kg/m3 | mass density (323.14 K, 6022 kPa): 712.4 ± 2 kg/m3 | mass density (323.14 K, 6037 kPa): 712.3 ± 2 kg/m3 | mass density (323.14 K, 6056 kPa): 712.3 ± 2 kg/m3 | mass density (323.14 K, 6076 kPa): 712.5 ± 2 kg/m3 | mass density (323.14 K, 6089 kPa): 712.4 ± 2 kg/m3 | mass density (323.14 K, 6105 kPa): 712.3 ± 2 kg/m3 | mass density (323.14 K, 6124 kPa): 712.5 ± 2 kg/m3 | mass density (323.14 K, 6144 kPa): 712.5 ± 2 kg/m3 | mass density (323.14 K, 6167 kPa): 712.5 ± 2 kg/m3 | mass density (323.14 K, 6179 kPa): 712.3 ± 2 kg/m3 | mass density (323.14 K, 6202 kPa): 712.5 ± 2 kg/m3 | mass density (323.14 K, 6217 kPa): 712.4 ± 2 kg/m3
